Data reported in patent US11413281B2, “Ternary conjugate of antitumor drug, and synthesis and application” (priority 2016, dated 2022).
Where no end group is shown, it is not given here.

Tests used:
[1] = system: leukemia cells (K562); assay: In vitro anti-tumor activity, MTT assay, K562; type: cell-based; details: Homo sapiens, K562, 48 h, read-out: K562 (IC50, μM)
Procedure: (§1) Preparation of MTT solution: MTT dry powder 0.5 g was dissolved in 100 mL PBS buffer, filtered and sterilized with a […] filter, and placed in a refrigerator at −12° C. for storage.
(§2) Three types of tumor cells used in the assay for antitumor activity are human hepatoma cells (HepG2), leukemia cells (K562) and human colon cancer cells (HCT116).
K562 cells were cultured in RPMI1640 cell culture medium containing 1% penicillin-streptomycin solution, 10% fetal bovine serum, and incubated at 37° C. in a constant temperature incubator containing 5% CO2. Specific steps:
The cells were counted using a hemocytometer and diluted to 5×10^4 cells/mL with RPMI medium;
100 μL of cell suspension was added to each well of a 96-well plate, incubated at 37° C. for 2 h.
(§3) The desired test compounds were diluted to 5 concentrations: 2 mM, 0.2 mM, 20 μM, 2 μM, 0.2 μM, and 0.5 μL/well was sequentially added according to the concentration, incubated at 37° C. for 48 h.
MTT was added at a concentration of 5 mg/mL, incubated at 37° C. for 4 hours.
Isopropanol and hydrochloric acid lysis were added, and the OD values at 570 nm and 630 nm were measured with a microplate reader.
(§4) Processing data, calculate IC50 value according to OD value.

[2] = system: human colon cancer cells (HCT116); assay: In vitro anti-tumor activity, MTT assay, HCT116; type: cell-based; details: HCT-116, 48 h, read-out: HCT116 (IC50, μM)
Procedure: Preparation of DMEM/F-12 culture broth: HyClone MEM/F-12 medium, 500 mL per bottle, add 10% fetal bovine serum and 1% solution of penicillin, stored in a refrigerator at 4° C.
as §1, §2
Human colon cancer cell HCT116 test
The culture fluid used for HCT116 cells was a DMEM/F-12 cell culture solution containing 1% penicillin-streptomycin solution, 10% fetal bovine serum. Specific steps:
The cells were counted using a hemocytometer and diluted with DMEM/F-12 medium to 5×10^4 cells/mL.
(§5) Add 100 μL of cell suspension to each well of a 96-well plate, mix, incubated at 37° C. for 24 h.
as §3
(§6) MTT was added at a concentration of 5 mg/mL, incubated at 37° C. for 4 h.
Cells were lysed by addition of DMSO, and the OD values at 490 nm and 630 nm were measured with a microplate reader.
as §4

[3] = system: human hepatoma cells (HepG2); assay: In vitro anti-tumor activity, MTT assay, HepG2; type: cell-based; details: HepG2, 48 h, read-out: HepG2 (IC50, μM)
Procedure: Formulation of DMEM low glucose medium: HyClone MEM low glucose medium, 500 mL per bottle, add 10% fetal bovine serum and 1% solution of penicillin, stored in a refrigerator at 4° C.
as §1, §2
Human Hepatocarcinoma Cell (HepG2) Test
The culture medium for HepG2 cells was DMEM cell culture medium containing 1% penicillin-streptomycin solution and 10% fetal bovine serum, and the culture condition was 37° C. and a constant temperature incubator containing 5% CO2. Specific steps:
The cells were counted using a hemocytometer and diluted with DMEM low glucose to 5×10^4 cells/mL.
as §5, §3, §6
Cells were lysed by addition of DMSO, and the OD values at 490 nm and 630 nm were measured with a microplate reader. […]

[4] = Self-assembly in aqueous solution (proton NMR in DMSO-d6 vs D2O); type: physicochemical; details: HCPT NMR signals disappear in D2O
Description: The micelles enclose the hydrophobic structure inside. […] This phenomenon also exists in the conjugate of PEG and HCPT, and it is confirmed by dynamic light scattering and transmission electron microscopy, which showing it can form nanospheres or nanorods with about 200 nm diameter.

[5] = system: E-selectin mediated adhesion of THP-I to HUVECs; assay: Adhesion test of human acute monocytic leukemia cells and endothelial cells; type: cell-based; details: THP-I on TNF-α stimulated HUVECs, FIG. 4
Procedure: Example 3. Adhesion Test of Compounds Against Human Acute Monocytic Leukemia Cells and Endothelial Cells
Endothelial cell line HUVEC and human acute monocytic leukemia cell line THP-I were purchased from ATCC and cultured at 37° C. in a 5% CO2 saturated humidity medium, which contains 10% fetal bovine serum, RPMI 1640 with 100 μg/mL penicillin and F-12 with 100 μg/mL streptomycin, the cells were used at logarithmic growth phase.
Polylysine (20 μg/ml) (Shanghai Yuanye Biotechnology Co., Ltd.) was coated on a black 96-well cell culture plate (Corning Incorporated costar 3603) and incubated at 37° C. for 12 h. Endothelial cells HUVECs were seeded at a concentration of […] in black 96-well cell culture plates. After incubation at 37° C. for 36 h, the medium in the cell culture plates was removed. The experimental group was added with F-12 medium with 20 ng/ml TNF-α, F-12 medium without TNF-α was added to the control group, all the groups were incubated for 6 h at 37° C. […] 100 μl permeation solution (BIOSHARP) was added to each well and fluorescence was measured with a Synergy 4 Multiplate Reader (Biotek) (Ex, 485 nm; Em, 528 nm). The inhibitory effect of the candidate compound is inversely proportional to the fluorescence intensity, and the lower the fluorescence value, the stronger the inhibition effect of the compound.

Compound	IC50 [1] [µM]	IC50 [2] [µM]	IC50 [3] [µM]	self-assembly in aqueous solution [4]	anti-E-selectin mediated cell adhesion in vitro [5]
CC[C@@]1(O)C(=O)OCc2c1cc1n(c2=O)Cc2cc3cc(O)ccc3nc2-1 [HCPT, 10-hydroxycamptothecin]	< 1	< 1	< 1	–	–
Compound 9 (CIELLQAR-OH; also: Cys1 connects to remainder of compound 9 through SH and amino group)	–	–	–	self-assembled into nano-micelles	significant anti-E-selectin mediated cell adhesion
